Data on two compounds can be found in patent publication US20260097091A1, “ADMINISTRATION OF GLUTATHIONE TRISULFIDE TO AMELIORATE PERIPHERAL NEUROPATHY” (The General Hospital Corporation, priority 2022, published 2026).

A short description of data set [1]: tissue distribution of orally administered ^34S-labeled GSSSG by LC-MS/MS. As to conditions: 2 hours after oral 50 mg/kg. The format is in vivo, mice. The protocol:
To determine the tissue distribution of orally-administered GSSSG, ^34S-labelled GSSSG was administered by gavage to each of four mice. ^34S-labelled GSSSG was synthesized and provided by Kyowa Hakko Bio CO., LTD. Two hours after a single dose of ^34S-GSSSG, DRG, lumber spinal cord, brain, liver, and plasma were obtained and snap frozen for later analysis.
We examined whether administrated GSSSG via oral gavage reaches peripheral nervous system using liquid chromatography with tandem mass spectrometry (LC-MS/MS). Fifty mg/kg of ^34S-labeled GSSSG (in which the middle sulfur, that is a sulfane sulfur, was replaced to ^34S; G-^32S-^34S-^32S-G) was orally administered to mice. Two hours after administration, plasma and tissue from liver, brain, lumbar spinal cord, and lumbar DRG (L1 to L6) were collected and immediately frozen at −80° C. Tissues were homogenized with 5 mM of β-(4-hydroxyphenyl)ethyl iodoacetamide (HPE-IAM) (Santa Cruz, Cat No. SC-473766) and incubated for 20 minutes at 37° C. to promote HPE-IAM reaction that stabilizes persulfide residues. Proteins were removed by centrifugation at 15,000 g for 10 minutes at 4° C., and total protein concentration was measured by BCA assay. The supernatant was diluted by 0.1% formic acid for LC-MS/MS analysis. The amount of ^34S-labeled GSSSG was quantified in selective reaction monitoring (SRM) with precursor ion (647.14 m/z), product ion (389.1 m/z), and HCD (21 v) and normalized by protein concentration. The ratio of ^34S-labeled reactive sulfur species to endogenous (^32S) reactive sulfur species (GSSH, CysSSH, and CysSSSCys) were also calculated from their peak area measured by Dionex UltiMate 3000 RS UPLC-Orbitrap Exploris 480 mass spectrometer (Thermo Scientific Scientific, Waltham, MA, USA). In brief, samples were subjected to the UPLC system with a Hypersil Gold C-18 (100×2.1 mm, 3.0 μm, Thermo Fisher Scientific) column and they were eluted by using a linear methanol gradient of the mobile phase (0-90%, 15 minutes) in the presence of 0.1% formic acid at a flow rate of 0.2 ml/minutes at 40 degrees. The raw data were obtained by Compound Discoverer software 3.3. Molecular weight of reactive sulfur species combined with HPE-IAM were reported in previous studies.

The nature of data set [2]: water solubility of PTN-SSS. The format is physicochemical. An excerpt:
(§1) PTN-SSS was synthesized and provided by Kyowa Hakko Bio Co., Ltd. The purity of PTN-SSS is 96.3%, and PTN-SSS is highly water soluble (>50 g/L). PTN-SSS and PTN (Toronto Research Chemicals, Toronto, ON, Canada) were suspended in distilled water. PTN-SSS is stable in solution at pH 4.0-9.0 at room temperature for at least 4 days. In the PTN-SSS study, distilled water was used as the vehicle alone.

The subject of data set [3] is primary DRG neurons. As to the kind of experiment: primary DRG neurons exposed to paclitaxel: Sholl analysis and axonal mitochondria (NF200, MitoTracker). Type of data set: cell-based, mice. The conditions noted are these: 500 nM PTNSSS with 100 nM paclitaxel for one hour. The protocol:
Primary DRG neurons were prepared from 8 to 10-week old mice as described previously. Briefly, lumber DRG (L1 to L6) were isolated from mice and centrifuged at 176×g (1000 rpm) for 3 minutes. After aspirating the solution, DRG were incubated with Dispase-II Solution (Sigma-Aldrich, Cat No. SCM133) and collagenase type II (Worthington, Cat No. LS004176) for 70 minutes and with 0.25% trypsin for 5 minutes. Subsequently triturated by frame polished glass pipet, neurons were seeded on a 12-well plate with 15 mm coverslip. Cells were incubated in Neurobasal A-medium with 2% B27 supplement (Gibco, Cat No. 10889038), 1% penicillin/streptomycin, 1% Glutamax (Gibco, Cat No. 35050061), and nerve growth factor (Sigma Aldrich, Cat No. N6009) for 24 hours. After 24 hours, they were exposed to 100 nM of paclitaxel with or without 500 nM of GSSSG or PTNSSS for one hour and 50 nM of MitoTracker (Invitrogen, Cat No. M22426) for 30 minutes. After fixing by 4% paraformaldehyde for 10 minutes at room temperature, cells were immersed in 0.2% Triton X-100 in PBS for 7 minutes and washed by PBS. They were incubated with anti-NF200 antibody (1:400, mouse, Sigma-Aldrich, Cat No. N0142) overnight at 4° C. and with the secondary antibody (1:1000, donkey anti-mouse, Abcam, Cat No. ab150105) for one hour at room temperature. After being covered with fluoroshield mounting medium with DAPI (Sigma-Aldrich, Cat No. F6057), 9-10 cells per group (3 mice per group) were imaged on confocal microscopy (ZEISS LSM 800, Carl Zeiss, Thornwood, NY) using a 63× oil immersion objectives lens with 1,024×1,024 pixels image size.
Effects of PTNSSS and GSSSG on axonal integrity were examined in cultured murine primary DRG neurons incubated with paclitaxel. […] Morphology of neurons, the number, length, and branching of neurites, was analyzed by Sholl analysis implemented in ImageJ [30]. Sholl analysis draws equally spaced circles from the soma and counts the number of intersections between neurites and circles to quantify neuronal morphology (FIG. 8C).

A short description of data set [4]: stability of PTN-SSS in solution. The conditions noted are these: pH 4.0-9.0 at room temperature. Type of data set: physicochemical.
Description: as §1

On to `N[C@@H](CCC(=O)N[C@@H](CS[34S]SC[C@H](NC(=O)CC[C@H](N)C(=O)O)C(=O)NCC(=O)O)C(=O)NCC(=O)O)C(=O)O` [^34S-labelled GSSSG], for which, in data set [1] (all 4 tissues), the “ratio of ^34S-labelled CysSSH to endogenous CysSSH” value is on record as “more than 10 fold” and the “ratio of ^34S-labelled CysSSSCys to endogenous CysSSSCys” value is recorded as “more than 10 fold”. In data set [1] (all 4 tissues (lumber DRG, lumber spinal cord, brain, liver)), the “ratio of ^34S-labelled GSSH to endogenous GSSH” value is “more than 10 fold”. For the same compound, in data set [1] (mice), the “average concentration of ^34S-labelled GSSSG in brain” value is on record as 142 pmol/mg protein, the “average concentration of ^34S-labelled GSSSG in liver” value came out at 158 pmol/mg protein, the “average concentration of ^34S-labelled GSSSG in lumber DRG” value stood at 415 pmol/mg protein and the “average concentration of ^34S-labelled GSSSG in lumber spinal cord” value is listed as 518 pmol/mg protein.
The compound `CC(C)(CO)[C@@H](O)C(=O)NCCC(=O)NCCSSSCCNC(=O)CCNC(=O)[C@H](O)C(C)(C)CO` [PTN-SSS, pantethine trisulfide] yielded a water solubility in data set [2] greater than 50 mg/mL. Also, in data set [3], the “axonal length (Sholl analysis)” value is “prevented the axonal shortening induced by paclitaxel”. The stable in solution result in data set [4] was “at least 4 days”.
